The test system of one data set is ectopic bone formation. The experiment in a line: Surgical mouse model of heterotopic ossification (rhBMP2-soaked collagen disk), micro-CT. The class given is in vivo, CD-1 mouse. Particulars: Day 14. As for the experimental part:
Heterotopic ossification (HO) driven by Bone Morphogenetic Protein (BMP) signaling has been used as a surrogate model for testing the effectiveness of drugs for treating Fibrodysplasia Ossificans Progressiva (FOP) (see, for example, Shimono K., et al. (2011). Nat Med 17, 454-460.). Collagen disks of 1mm in diameter were punched from a thin collagen foam matrix (Avitene™ Ultrafoam™ Collagen Hemostat product #1050050 lot #WBDP0038, from BD, Franklin Lakes, NJ, USA). Disks were impregnated with 1µg total of recombinant human BMP-2 (GenScript, Piscataway, NJ, USA, catalog #Z02913, lot #P50031712) on the day of surgery (5µl of 200ng/µL BMP-2, reconstituted in 20mM acetic acid solution). The rhBMP2-soaked collagen disk was surgically implanted into a small pocket made in the left gastrocnemius muscle of a 6-8 week-old male CD-1 mouse. Beginning on the day following surgery, mice were administered varying doses of compound 1 by oral gavage once daily (QD) or twice daily (every 12h; BID) for 13 days. Doses administered were: vehicle (Corn oil, QD (5M) and BID (3M) dosing or 3% DMSO in Corn oil (2M)), compound 1 18 mg/kg BID, 18 mg/kg QD, 6 mg/kg BID, 4.5 mg/kg BID, and 2 mg/kg BID (6M per group). Palovarotene high and low doses were used as comparators (1.76 mg/kg (4M) and 0.88 mg/kg QD (6M)). The palovarotene high and low doses were selected based on a study for palovarotene (Inubushi, T., et al. (2018). "Palovarotene Inhibits Osteochondroma Formation in a Mouse Model of Multiple Hereditary Exostoses." J Bone Miner Res 33(4): 658-666.), using oral treatment of mice. The inventors also verified the dose selection based on pharmacokinetic (PK) data generated in-house for palovarotene IP (intraperitoneal) and PO (oral) treatment by using the doses for IP treatment from Lees-Shepard, J. B., et al. (2018).
At the study endpoint (Day 14: 16-30 hours after final compound treatment) left hindlimbs were removed and submitted to micro-CT (micro-computed tomography) imaging. Using this preclinical surgical model, the amount of resulting ectopic bone formation after 14 days was visualized for each of the treatment groups (Figure 6). The highly enhancing regions seen within the gastrocnemius muscle corresponded to the amount of ectopic bone formation generated at the site of collagen disk implantation, following 14 days of vehicle or drug treatment.
The hindlimbs obtained in Example 6 above were submitted to micro-CT imaging. CT images were acquired using a VECTor^4CT pre-clinical scanner (MILabs B.V., Utrecht, Netherlands) equipped with a cone beam X-ray CT system. Scans were carried out with an acceleration voltage of 50 kVp and an X-ray tube current of 430 µA in accurate focus mode to obtain 3600 projections over a 360° scan. With a 40 ms exposure time per step, the total scan procedure took about 5 minutes with an estimated radiation dose of 3077 mGy. CT images were consequently processed using MILabs reconstruction software implementing a voxel size of 20 µm and a Hann projection filter of 25 µm to generate 3-dimensional CT images. For quantification, CT images were converted to DICOM® files using PMOD 3.9 software (PMOD Technologies Ltd., Zurich, Switzerland) for rendering using RadiAnt DICOM Viewer 4.2 software (Medixant, Poznań, Poland). The region-of-interest for all hindlimbs, reconstructed from DICOM files, was defined by outlining sites of ectopic ossification. Analysis of total ectopic bone volume was conducted via automated processes using the AnalyzePro software with the Bone Microarchitecture Analysis (BMA) add-on (AnalyzeDirect, Overland Park, Kansas). This software generates bone volume measurements from the defined area, as described by Bouxsein et al (2010). Journal of Bone and Mineral Research, 25(7), 1468-1486. Using this preclinical surgical model, the ability of compound 1 to inhibit HO (percentage from vehicle), as compared to palovarotene, was assessed and is shown in Figure 7 and in Table 1 below.

The nature of data set [1]: Mapping a therapeutic window (ED50 versus MTD). The conditions noted are these: QD, own data compiled with mined literature data. In kind it is in vivo. An excerpt: For both palovarotene and compound 1 efficacy and toxicity were correlated to the pharmacokinetic parameters AUC (area under the curve), Cmax (maximum concentration detected following compound administration), and duration above EC50/IC50.This illustrated that efficacy was best predicted by duration above the EC50/IC50 (effective concentration for 50% response (in the case of palovarotene), or for 50% inhibition (in the case of compound 1)), whereas toxicity was best predicted by Cmax. […] For palovarotene, efficacy data from Example 7 and toxicity data from Example 8 above were compiled with mined data from the following publications: • Lindborg et al (2018). "Cartilage-derived retinoic acid-sensitive protein (CD-RAP): A stage-specific biomarker of heterotopic endochondral ossification (HEO) in fibrodysplasia ossificans progressiva (FOP)." Bone 109: 153-157. • Chakkalakal, S. A., et al. (2016). "Palovarotene Inhibits Heterotopic Ossification and Maintains Limb Mobility and Growth in Mice With the Human ACVR1(R206H) Fibrodysplasia Ossificans Progressiva (FOP) Mutation." J Bone Miner Res 31(9): 1666-1675. • Inubushi, T., et al. (2018). "Palovarotene Inhibits Osteochondroma Formation in a Mouse Model of Multiple Hereditary Exostoses." J Bone Miner Res 33(4): 658-666. • Lees-Shepard, J. B., et al. (2018). […] "Potent inhibition of heterotopic ossification by nuclear retinoic acid receptor-gamma agonists." Nat Med 17(4): 454-460.

Each structure is given as a SMILES string.

As usually defined, the ED50 is the dose at which the effect has come halfway, by size or by number of responders. Read a low ED50 as greater potency. For the compound `CC1(C)CCC(C)(C)c2cc(Cn3cccn3)c(/C=C/c3ccc(C(=O)O)cc3)cc21` [Palovarotene, palovarotene, reference compound], the “Mean bone volume (mm^3)” value is recorded as 1.985 mm^3 with ectopic bone formation (0.88mg/kg) and 0.615 mm^3 in the data set with ectopic bone formation (1.76mg/kg QD). Moreover, the “percent change in HO volume from vehicle mean (%)” value with ectopic bone formation (0.88mg/kg) was “+2.5%”; in the data set on ectopic bone formation (1.76mg/kg QD), -68.2%. This compound had an ED50 in data set [1] (Mus musculus) of 0.3 mg/kg. Besides, the MTD in data set [1] (mouse, in vivo) stood at 0.285 mg/kg.

The record behind these values is patent EP4470536A1, “COMPOUND FOR USE IN TREATING FIBRODYSPLASIA OSSIFICANS PROGRESSIVA (FOP)” (Queen's University At Kingston, priority 2023, dated 2024).
